Where two headings read alike, the source gives them in different places.
Experiments:
HepG2 = conditions: read-out: HepG2 IC50; cytotoxicity; previously published ref 7 (Leven et al.); cited from earlier work
[1] = tested on: FCB WT and FCB KD parasite lines; assay: Potency against FCB lines with different pfmdr1 copy numbers; type: cell-based, Plasmodium falciparum; conditions: FCB WT (two copies of pfmdr1) versus FCB KD (one functional copy)
Pf_Polδ = type: cell-based, Plasmodium falciparum; conditions: Pf_Polδ parasites exposed to 45 nM (3 × IC50)
[2] = Snapshot in vivo PK, dried blood spots, LC-MS/MS; conditions: mouse, po; for k el: ke
[3] = tested on: heme detoxification in Pf NF54 trophozoites; assay: Pyridine-based cellular heme fractionation assay; type: cell-based, Plasmodium falciparum; conditions: Pf NF54, 1.5 to 2.5 × IC50
Pf Dd2 clone B2 (Dd2-B2) = type: cell-based, Plasmodium falciparum; conditions: triplicate flasks of 2 × 10^9 Dd2-B2 parasites, 3× to 5× IC50
[4] = tested on: compound 1-resistant clones Fl2-C4 and Fl3-C3; type: cell-based, Plasmodium falciparum; conditions: clones Fl2-C4 and Fl3-C3, standard 72 h drug-response assay
PfDd2 = type: cell-based; conditions: Plasmodium falciparum, read-out: PfDd2 IC50±SD
Pf 3D7 = type: cell-based; conditions: Plasmodium falciparum, 3D7, read-out: Pf3D7 IC50±SD
[5] = human, 5 h, 1 μM, pH 7.4
[6] = 4 × 30 mg/kg oral, monitored up to 30 days

## C[C@H]1[C@H](OC(=O)CCC(=O)O)O[C@@H]2O[C@@]3(C)CC[C@H]4[C@H](C)CC[C@@H]1[C@@]24OO3 [AS, artesunate, reference compound]
Plasmodium berghei; 4 × 30 mg/kg oral
  cured (number of parasite-free mice on day 30): 0/10

## N/C(CC(O)c1cc2c(F)cc(F)cc2c2cc(C(F)(F)F)ccc12)=N\N=C\c1ccc(F)cc1 (centres unmarked) [Compound 1]
HepG2
  IC50: 27700 nM
[1]
  effect of pfmdr1 copy number on sensitivity: the decrease from two to one pfmdr1 copy caused a further sensitization
Plasmodium berghei; 4 × 10 mg/kg oral
  cured (number of parasite-free mice on day 30): 2/3
Plasmodium berghei; 4 × 30 mg/kg oral
  cured (number of parasite-free mice on day 30): 1/3
Plasmodium berghei; [6]
  MSD (mean survival time): 26 days
Plasmodium berghei; 4 × 50 mg/kg oral
  cured (number of parasite-free mice on day 30): 1/3

## COc1ccc(/N=C(\N)CC(O)c2cc3c(F)cc(F)cc3c3cc(C(F)(F)F)ccc23)cc1.Cl (centres unmarked) [Compound 22, (Z)-3-(1,3-Difluoro-6-(trifluoromethyl)phenanthrene-9-yl)-3-hydroxy-N′-(4-methoxyphenyl)propanimidamide Hydrochloride]
Pf_Polδ
  outcome of resistance selection: unable to readily generate resistant parasites
[2]; 3 mg/kg
  AUC(0-inf): 30 ng·h/mL
  AUC(0-t): 28.9 ng·h/mL
  half-life: 5.49 h
[2]; 3 mg/kg, single oral dose 3 mg/kg, mouse I
  k el: 3.69e-05 s⁻¹
[2]; 3 mg/kg, single oral dose 3 mg/kg, mouse II
  k el: 3.51e-05 s⁻¹
[2]; 10 mg/kg
  AUC(0-inf): 365 ng·h/mL
  AUC(0-t): 361 ng·h/mL
  half-life: 5.26 h
[2]; 10 mg/kg, single oral dose 10 mg/kg, mouse I
  k el: 4.66e-05 s⁻¹
[2]; 10 mg/kg, single oral dose 10 mg/kg, mouse II
  k el: 3.66e-05 s⁻¹
[2]; 30 mg/kg
  AUC(0-inf): 1310 ng·h/mL
  AUC(0-t): 1080 ng·h/mL
  half-life: 9.95 h
[2]; 30 mg/kg, single oral dose 30 mg/kg, mouse I
  k el: 1.94e-05 s⁻¹
[2]; 30 mg/kg, single oral dose 30 mg/kg, mouse II
  k el: 2.74e-05 s⁻¹
[3]
  inhibition of hemoglobin degradation: some inhibition of hemoglobin degradation
[1]
  effect of pfmdr1 copy number on sensitivity: the decrease from two to one pfmdr1 copy caused a further sensitization
Plasmodium berghei; 30 mg/kg once daily oral for 4 consecutive days
  cure rate: 33%
Plasmodium berghei; 50 mg/kg once daily oral for 4 consecutive days
  cure rate: 66%
Plasmodium berghei; 4 × 3 mg/kg oral
  MSD (mean survival time): euthanized
  cured (number of parasite-free mice on day 30): 0/3
Plasmodium berghei; 4 × 10 mg/kg oral
  cured (number of parasite-free mice on day 30): 0/3
Plasmodium berghei; 4 × 30 mg/kg oral
  cured (number of parasite-free mice on day 30): 1/3
Plasmodium berghei; [6]
  MSD (mean survival time): 28 days
Plasmodium berghei; 4 × 50 mg/kg oral
  cured (number of parasite-free mice on day 30): 2/3
Plasmodium berghei; mice, oral doses 3-50 mg/kg
  signs of toxicity during the in vivo studies: no obvious signs of toxicity
Pf Dd2 clone B2 (Dd2-B2)
  outcome of resistance selection: no viable parasites after 60 days
[4]
  shift in IC50 value in compound 1-resistant clones: 1.6 fold

## Cl.N/C(CC(O)c1c2ccccc2cc2ccccc12)=N\c1ccc(F)cc1 (centres unmarked) [Compound 23, (Z)-3-(Anthracene-9-yl)-N′-(4-fluorophenyl)-3-hydroxypropanimidamide Hydrochloride]
Plasmodium berghei; 4 × 50 mg/kg oral
  cured (number of parasite-free mice on day 30): 0/3
Plasmodium berghei; 4 × 50 mg/kg oral, monitored up to 30 days
  MSD (mean survival time): euthanized
Plasmodium berghei; 4 × 50 mg/kg oral, parasitemia by FACS on day 4, 50 mg/kg
  activity: 44%

## CCCCN(CCCC)CC(O)c1cc(Cl)cc2c1-c1ccc(Cl)cc1/C2=C/c1ccc(Cl)cc1 (centres unmarked) [LUM, Lumefantrine, reference compound]
Plasmodium berghei; 4 × 30 mg/kg oral
  cured (number of parasite-free mice on day 30): 3/3

## CCN(CC)CCCC(C)Nc1ccnc2cc(Cl)ccc12 (centres unmarked) [CQ, Chloroquine]
PfDd2
  IC50: 230 ± 100 nM
Pf 3D7
  IC50: 6 ± 2 nM
Plasmodium berghei; 4 × 30 mg/kg oral
  cured (number of parasite-free mice on day 30): 0/10

## CCCCN(CCCC)CCC(O)c1cc2c(Cl)cc(Cl)cc2c2cc(C(F)(F)F)ccc12 (centres unmarked) [HF, Halofantrine]
[5]
  plasma protein binding: 100%

Reference: PMC8211464 (Journal of medicinal chemistry, 2021)
